≈ marks a conversion by molar mass, not a printed value.
What was measured:
Salmonella typhi [1] = experiment: Antibacterial activity against Salmonella typhi at 2 mg by agar well diffusion assay relative to imipenem; format: functional, Salmonella enterica subsp. enterica serovar Typhi
Aspergillus flavus [2] = experiment: Antifungal activity against Aspergillus flavus at 50 mg after 72 hrs by dilution plate method; format: functional; conditions: read-out: IZ
Salmonella typhi [3] = experiment: Antibacterial activity against Salmonella typhi; format: functional, Salmonella enterica subsp. enterica serovar Typhi; conditions: Salmonella enterica
Bacillus subtilis [4] = experiment: Antibacterial activity against Bacillus subtilis at 2 mg by agar well diffusion assay relative to imipenem; format: functional
Staphylococcus aureus = experiment: Antibacterial activity against Staphylococcus aureus; format: functional
Aspergillus niger = experiment: Antifungal activity against Aspergillus niger assessed as growth inhibition at 50 mg after 72 hrs dilution plate method; format: functional
Bacillus subtilis [5] = experiment: Antibacterial activity against Bacillus subtilis; format: functional
Aspergillus flavus [6] = experiment: Antifungal activity against Aspergillus flavus assessed as growth inhibition at 50 mg after 72 hrs by dilution plate method; format: functional
Fusarium oxysporum = experiment: Antifungal activity against Fusarium oxysporum assessed as growth inhibition at 50 mg after 72 hrs by dilution plate method; format: functional
Pseudomonas aeruginosa = experiment: Antibacterial activity against Pseudomonas aeruginosa; format: functional
Escherichia coli [7] = experiment: Antibacterial activity against Escherichia coli at 2 mg by agar well diffusion assay relative to imipenem; format: functional
Escherichia coli [8] = experiment: Antibacterial activity against Escherichia coli; format: functional

SMILES: OC1=CC=CC/C1=N\c1ncnc2[nH]cnc12
- inhibition (INH) (Salmonella typhi [1]): 10%
- zone of inhibition at 50000 µg/disc (Aspergillus flavus [2]): 8 mm
- MIC (Salmonella typhi [3]): 64 µg/mL (≈ 282 µM)
- inhibition (INH) (Bacillus subtilis [4]): 30%
- MIC (Staphylococcus aureus): 128 µg/mL (≈ 563 µM)
- inhibition (INH) (Aspergillus niger): 8%
- MIC (Bacillus subtilis [5]): 128 µg/mL (≈ 563 µM)
- inhibition (INH) (Aspergillus flavus [6]): 10%
- inhibition (INH) (Fusarium oxysporum): 12%
- MIC (Pseudomonas aeruginosa): 64 µg/mL (≈ 282 µM)
- inhibition (INH) (Escherichia coli [7]): 10%
- MIC (Escherichia coli [8]): 64 µg/mL (≈ 282 µM)
